In brackets after ≈: the same amount, converted by molar mass.
These compounds were tested on CCRF-CEM (assay: Compound was tested for whole cell antiviral activity against CEM cell lines). Conditions: Homo sapiens.
Type: functional, cell-based

Structure (SMILES) | IC50 [µg/mL]
CC(C)(C)NC(=O)c1ccccc1SC[C@@H](O)[C@H](Cc1ccccc1)NC(=O)[C@H](CC(N)=O)NC(=O)c1ccc2ccccc2n1 | 0.48 (≈ 0.748 µM)
CC(C)(C)NC(=O)c1ccccc1SC[C@H](O)[C@H](Cc1ccccc1)NC(=O)[C@H](CC(N)=O)NC(=O)c1ccc2ccccc2n1 | 4.99 (≈ 7.78 µM)
CC(C)(C)NC(=O)c1ccccc1C[C@@H](O)[C@H](Cc1ccccc1)NC(=O)[C@H](CC(N)=O)NC(=O)c1ccc2ccccc2n1 | 0.0137 (≈ 0.0224 µM)

The compounds below were run against Human immunodeficiency virus type 1 protease (Human immunodeficiency virus 1) (UniProt Q72874) (assay: Percent inhibition against isolated HIV-1 protease at a concentration of 1 ug/ml). Conditions: not given.

Structure (SMILES) | inhibition [%]
CC(C)(C)NC(=O)c1ccccc1[S+]([O-])C[C@@H](O)[C@H](Cc1ccccc1)NC(=O)[C@H](CC(N)=O)NC(=O)c1ccc2ccccc2n1 (stereo in doubt; 16b) | 28
CC(C)(C)NC(=O)c1ccccc1[S+]([O-])C[C@@H](O)[C@H](Cc1ccccc1)NC(=O)[C@H](CC(N)=O)NC(=O)c1ccc2ccccc2n1 (stereo in doubt; 16a) | 69

These compounds were tested against Human immunodeficiency virus type 1 protease (Human immunodeficiency virus 1, UniProt Q72874) (assay: Compound was tested for inhibitory activity against isolated HIV-1 protease). Conditions: not given.

Structure (SMILES) | IC50 [nM]
CC(C)(C)NC(=O)c1ccccc1S(=O)(=O)C[C@@H](O)[C@H](Cc1ccccc1)NC(=O)[C@H](CC(N)=O)NC(=O)c1ccc2ccccc2n1 | 509
CC(C)(C)NC(=O)c1ccccc1SC[C@@H](O)[C@H](Cc1ccccc1)NC(=O)[C@H](CC(N)=O)NC(=O)c1ccc2ccccc2n1 | 13.4
CC(C)(C)NC(=O)c1ccccc1SC[C@H](O)[C@H](Cc1ccccc1)NC(=O)[C@H](CC(N)=O)NC(=O)c1ccc2ccccc2n1 | 56.1
CC(C)(C)NC(=O)c1ccccc1SC[C@@H](O)[C@H](Cc1ccccc1)NC(=O)[C@H](Cc1c[nH]cn1)NC(=O)c1ccc2ccccc2n1 | 208

What follows are compounds tested on MT2 (assay: Compound was tested for whole cell antiviral activity against MT2 cell lines). Conditions: Homo sapiens.
Type: functional, cell-based

Structure (SMILES) | IC50 [µg/mL]
CC(C)(C)NC(=O)c1ccccc1SC[C@@H](O)[C@H](Cc1ccccc1)NC(=O)[C@H](CC(N)=O)NC(=O)c1ccc2ccccc2n1 | 0.41 (≈ 0.639 µM)
CC(C)(C)NC(=O)c1ccccc1SC[C@H](O)[C@H](Cc1ccccc1)NC(=O)[C@H](CC(N)=O)NC(=O)c1ccc2ccccc2n1 | 4.38 (≈ 6.82 µM)
CC(C)(C)NC(=O)c1ccccc1C[C@@H](O)[C@H](Cc1ccccc1)NC(=O)[C@H](CC(N)=O)NC(=O)c1ccc2ccccc2n1 | 0.0317 (≈ 0.052 µM)

Reference: ChEMBL document CHEMBL1127262, “Novel HIV01 protease inhibitors containing A -hydroxy sulfide isostere” (Bioorg Med Chem Lett, 1994)
